This note sets out measurements from patent US5145783A, “Glyphosate-tolerant 5-endolpyruvyl-3-phosphoshikimate synthase” (Monsanto Company, priority 1990, dated 1992).

What is called IC50 is the concentration at which inhibition is half-maximal. A low value points to higher potency.

Assay [1] relates to control petunia leaf disks (pMON505). Put plainly: Callus growth of petunia leaf disks on glyphosate media, control vector pMON505. The assay is classed as cell-based. As to the method: Leaf disks with diameters of 6 mm (1/4 inch) were taken from surface-sterilized petunia leaves. They were cultivated on MS104 agar medium for 2 days to promote partial cell wall formation at the wound surfaces. They were then submerged in a culture of A. tumefaciens cells containing both pMON546 and GV3111-SE which had been grown overnight in Luria broth at 28° C., and shaken gently. The cells were removed from the bacterial suspension, blotted dry, and incubated upside down on filter paper placed over "nurse" cultures of tobacco cells, as described in Horsch (1980). After 2 or 3 days, the disks were transferred to petri dishes containing MS media with 500 μg/ml carbenicillin and 0., 0.1, 0.25, or 0.5 mM glyphosate (sodium salt), with no nurse cultures.
Control tissue was created using A. tumefaciens cells containing the helper plasmid pGV3111-SE and a different plant transformation vector, pMON505, which contained a T-DNA region with a NOS/NPTII/NOS kanamycin resistance gene and a NOS selectable marker gene identical to pMON546, but without the CaMV35S/EPSP synthase gene.
Within 10 days after transfer to the media containing glyphosate, actively growing callus tissue appeared on the periphery of all disks on the control plate containing no glyphosate. […] This confirms that the CaMV35S/EPSP synthase gene conferred glyphosate resistance upon the transformed cells.

Assay [2] has as its target T1, wild-type maize EPSP synthase (Zea mays, UniProt A0A1D6NVZ6).
T1 sequence (A0A1D6NVZ6 1-506): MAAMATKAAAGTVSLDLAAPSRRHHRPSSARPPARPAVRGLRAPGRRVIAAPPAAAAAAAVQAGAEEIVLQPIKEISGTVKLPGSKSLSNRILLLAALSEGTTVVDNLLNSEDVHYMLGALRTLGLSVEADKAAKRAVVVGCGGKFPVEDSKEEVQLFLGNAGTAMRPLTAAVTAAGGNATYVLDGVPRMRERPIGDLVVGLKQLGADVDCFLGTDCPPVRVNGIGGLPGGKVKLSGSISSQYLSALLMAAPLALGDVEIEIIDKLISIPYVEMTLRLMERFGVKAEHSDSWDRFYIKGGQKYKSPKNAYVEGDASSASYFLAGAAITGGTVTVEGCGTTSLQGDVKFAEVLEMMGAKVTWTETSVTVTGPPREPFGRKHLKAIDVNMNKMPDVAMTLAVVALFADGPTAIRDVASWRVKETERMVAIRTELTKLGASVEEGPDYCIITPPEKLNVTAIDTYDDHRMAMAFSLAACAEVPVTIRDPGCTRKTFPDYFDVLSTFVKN
Put plainly: EPSP synthase activity of in vitro translation product of pMON9951. It is filed as biochemical. The following applies: 1.0 mM glyphosate. The method, then:
The linearized plasmid DNA was transcribed in vitro with T7 polymerase essentially as described by Krieg et al. 1984. The standard reaction buffer contained 40 mM Tris-HCl (pH 7.9), 6 mM MgCl2, 10 mM dithiothreitol, 2 mM spermidine, 80 U RNAsin ribuonuclease inhibitor, 0.5 mM each of ATP, GTP, CTP and UTP, in a final reaction volume of 100 μl. The final RNA pellet was resuspended in 20 μl of sterile water and stored at -80° C. A standard translation reaction contained 100 μl of nuclease-treated rabbit reticulocyte lysate, 5.7 μl of a 19-amino acid mixture (minus methionine at 1 mM each, 5.7 μl of RNA (total RNA transcripts derived from 0.63 μg of plasmid DNA), 16 μl RNAsin (20U/μl) ribonuclease inhibitor, and 58.3 μl of [^35 S] methionine (14-15 mCi/ml). The in vitro translation products were stored frozen at -80 ° C.
The products of the in vitro translation were then assayed for EPSP synthase activity as described herein.

For assay [3], the system named is Brassica napus calli transformed with pMON600. Put plainly: Growth of pMON600-transformed calli on glyphosate. The assay is classed as cell-based. The note with it: 0.5 mM glyphosate, three gentamicin resistant calli.
Assay [4] deals with T2, glyphosate-tolerant petunia EPSP synthase (alanine for glycine at position 101) (Petunia hybrida, UniProt P11043, G173A).
T2 construct: made in house; host or cells: E. coli (overproducing), extract
T2 sequence (P11043 73-516 G173A): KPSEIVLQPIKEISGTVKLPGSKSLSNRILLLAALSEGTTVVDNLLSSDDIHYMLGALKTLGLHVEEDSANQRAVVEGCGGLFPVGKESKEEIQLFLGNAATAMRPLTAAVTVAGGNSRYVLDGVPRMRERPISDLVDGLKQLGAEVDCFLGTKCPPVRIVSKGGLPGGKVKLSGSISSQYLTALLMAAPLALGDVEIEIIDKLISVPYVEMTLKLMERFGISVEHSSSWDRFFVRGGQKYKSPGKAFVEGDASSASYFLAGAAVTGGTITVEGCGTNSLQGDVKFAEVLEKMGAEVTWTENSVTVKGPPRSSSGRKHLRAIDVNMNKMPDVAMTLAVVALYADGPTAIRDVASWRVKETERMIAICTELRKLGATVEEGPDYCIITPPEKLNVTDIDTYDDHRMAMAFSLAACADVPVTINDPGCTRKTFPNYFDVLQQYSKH
Nature of the assay: EPSP synthase inhibition, petunia enzyme carrying the alanine for glycine substitution. It is filed as biochemical. The text has this: The EPSP synthase in the extracts was further characterized by titrating the resistance to glyphosate.

For assay [5], the target named is T3, glyphosate-tolerant EPSP synthase (gly(101)-ala) of tomato (Solanum lycopersicum, UniProt P10748, G177A).
T3 construct: ATG translational initiation codon at the site predicted to be the start of the mature enzyme for in vitro expression in E. Coli; initiator methionine (ATG in an engineered NcoI site) (N); made in house; host or cells: E. coli SR481 (aroA mutant) harboring pMON9729, desalted cell extract
T3 sequence (P10748 77-520 G177A): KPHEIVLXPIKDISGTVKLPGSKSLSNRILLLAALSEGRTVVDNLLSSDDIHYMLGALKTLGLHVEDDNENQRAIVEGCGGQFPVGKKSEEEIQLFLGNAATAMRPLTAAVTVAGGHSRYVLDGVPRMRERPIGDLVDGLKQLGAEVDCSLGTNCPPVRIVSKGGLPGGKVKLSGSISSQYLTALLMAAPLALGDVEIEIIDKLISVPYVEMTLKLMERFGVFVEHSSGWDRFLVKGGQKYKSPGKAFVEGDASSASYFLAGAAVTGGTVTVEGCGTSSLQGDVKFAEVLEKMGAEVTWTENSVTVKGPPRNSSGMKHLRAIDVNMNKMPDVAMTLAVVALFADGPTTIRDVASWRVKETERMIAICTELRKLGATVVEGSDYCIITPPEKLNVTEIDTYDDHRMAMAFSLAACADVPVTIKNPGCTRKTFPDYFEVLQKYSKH
Nature of the assay: EPSP synthase activity assay, extracts of E. coli SR481 harboring pMON9729. It is filed as biochemical. The method, then: E. coli SR481 cells harboring pMON9719 or pMON9729 were grown under conditions which induce the expression of the RecA promoter. The cells were lysed and the extracts were assayed for EPSP synthase activity.
Specifically, the bacterial cell paste was washed twice with 0.9% saline, suspended in buffer (100 mM Tris-HCl, 5 mM dithiothreitol, 1 mM EDTA, 10% glycerol and 1 mM benzamidine HCl) passed twice through the French Pressure Cell at 1000 psi. The cell abstract was separated from the cells by centrifuging at 15,000×gravity for 10 mins. at 5° C. It was desalted using Sephadex G-50 (Pharmacia, Piscataway, N.J.). The desalted extract was assayed for EPSP synthase activity as follows:
To an assay mix (40 μl) containing shikimate-3-phosphate (2 mM), ^14 C-phosphoenolpyruvate (1 mM, 1.2 mCi/mmol), ammonium molybdate (0.1 mM), potassium fluoride (5 mM), in 50 mM HEPES-KOH, pH 7, was added 10 μl of the extract and incubated at 25° C. for 2 mins. […] The radioactivity of the eluent was monitored using a Radiometric Flo-One Beta Instrument. […] The EPSP synthase activity was determined by measurement of the conversion of ^14 C-PEP to ^14 […], both of which are resolved under the above conditions of chromatography. The protein content of the extract was determined by the method of Bradford (Biorad Labs, Calif.). […]

For assay [6], the system named is E coli 11303 SM-1. Put plainly: Growth of mutant E. coli in medium containing glyphosate. The following applies: 10 mM or higher glyphosate in the growth medium. The assay is classed as cell-based. The method, then:
Cells of E. coli ATCC 11303 were transferred to medium A and incubated at 37° C.
This mutant bacterium was designated E coli 11303 SM-1. The AroA gene encoding EPSP synthase from this mutant bacterium was isolated as follows.

For the compound `O=C(O)CNCP(=O)(O)O` [glyphosate, N-phosphonomethylglycine], the values for the callus growth in assay [1] (0.25 mM glyphosate) and in assay [1] (0.5 mM glyphosate) were “very little growth of callus” and “no callus growth”, respectively. For the same compound, the “EPSP synthase activity in the presence of glyphosate” value in assay [2] is listed as “no activity was detected”. Further, the “callus growth on glyphosate” value in assay [3] is recorded as “capable of growth”. Besides, the IC50 came out at 16 mM in assay [4] and 32 mM in assay [5]. The “growth in the presence of glyphosate” value in assay [6] is recorded as “could grow rapidly”.
